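1) Cells in 96-well plates. 2) Compound, 48 h, 5 concentrations. 3) Linear interpolation between surrounding doses. 4) Unreached endpoint = highest concentration. GI50: concentration for 50% inhibition of growth. Definition used: TGI = concentration required for complete inhibition of growth.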 A value given as a limit tells only on which side of the number the result lay.

Among the test systems are A549 NSCLC; ACHN renal; KM12 colon; NCI-H23 lung; SF-539 CNS; SK-MEL-2 melanoma; SN12C renal; UACC-62 melanoma; SNB-75 CNS.
What all share (test): NCI-60 cell line screen, 48 h

`COC(=O)C(Cc1nc2ccc(Cl)cc2[nH]c1=O)/C(=N\N)C(=O)Nc1cc(C)c(Cl)cc1S(=O)(=O)O` (stereo not given): the TGI in the experiment on A549 NSCLC, with ACHN renal, in the experiment on KM12 colon, in the experiment on NCI-H23 lung, in the experiment on SF-539 CNS and in the experiment with SK-MEL-2 melanoma was more than 100 µM in each case. In addition, the TGI in the experiment with SN12C renal and in the experiment with UACC-62 melanoma was more than 100 µM throughout.

On to `O=C1/C(=C/c2ccc(Cl)cc2)CCC1CCN1CCOCC1` (stereo not given), for which the TGI with A549 NSCLC, in the experiment with ACHN renal, with KM12 colon, in the experiment with NCI-H23 lung, in the experiment on SF-539 CNS and in the experiment with SK-MEL-2 melanoma was more than 100 µM in each case. The TGI in the experiment with SN12C renal, in the experiment with SNB-75 CNS and in the experiment with UACC-62 melanoma was more than 100 µM in each case.

Take `Cc1ccc(NC(=O)CCc2cc(C(C)(C)C)nc(=S)[nH]2)cc1C`: the TGI with A549 NSCLC, in the experiment with ACHN renal, in the experiment with KM12 colon, with NCI-H23 lung, with SF-539 CNS and in the experiment on SK-MEL-2 melanoma was more than 100 µM in each case. Also, the TGI in the experiment with SN12C renal, in the experiment with SNB-75 CNS and in the experiment on UACC-62 melanoma was more than 100 µM each time.

`COc1cccc(C2=NC(C(C)C)CO2)c1` (stereo not given): the TGI in the experiment with A549 NSCLC, with ACHN renal, in the experiment with KM12 colon, in the experiment with NCI-H23 lung, in the experiment on SF-539 CNS and in the experiment with SK-MEL-2 melanoma was more than 100 µM in each case. Besides, the TGI with SN12C renal, in the experiment on SNB-75 CNS and in the experiment with UACC-62 melanoma was more than 100 µM in each case.

For the compound `CCC(C)COC(=O)c1ccc(N=Cc2ccc(C=Nc3ccc(C(=O)OCC(C)CC)cc3)cc2)cc1` (stereo not given), the TGI in the experiment on A549 NSCLC, with ACHN renal, in the experiment on NCI-H23 lung, with SF-539 CNS, with SK-MEL-2 melanoma and in the experiment on SN12C renal was more than 100 µM throughout. For the same compound, the TGI in the experiment with SNB-75 CNS and with UACC-62 melanoma was more than 100 µM each time.

For `CC12CP(=O)(c3ccccc3)CC1C2(Cl)Cl` (stereo not given), the TGI in the experiment on A549 NSCLC, in the experiment with KM12 colon, with NCI-H23 lung, in the experiment with SF-539 CNS, in the experiment with SN12C renal and with SNB-75 CNS was more than 100 µM throughout. This compound showed a TGI with UACC-62 melanoma of more than 100 µM.

With `Cc1cc(Cl)ccc1NC(=O)C(=O)Cc1nc2ccccc2o1`, the TGI with A549 NSCLC, in the experiment on ACHN renal, with KM12 colon, with NCI-H23 lung, with SF-539 CNS and in the experiment on SK-MEL-2 melanoma was more than 100 µM throughout. For the same compound, the TGI with SN12C renal, with SNB-75 CNS and with UACC-62 melanoma was more than 100 µM in each case.

Consider `CCOc1ccccc1NC(=O)C(=O)CC(=O)c1sc(Nc2nnc(-c3ccc(Cl)c(Cl)c3)o2)nc1C`, for which the TGI in the experiment with A549 NSCLC, with ACHN renal, in the experiment with KM12 colon, in the experiment with NCI-H23 lung, in the experiment with SF-539 CNS and in the experiment with SK-MEL-2 melanoma was more than 100 µM each time. Further, the TGI in the experiment on SN12C renal, with SNB-75 CNS and in the experiment with UACC-62 melanoma was more than 100 µM throughout.

Turning to `COc1ccc(CC2NCCc3c2[nH]c2ccccc32)cc1` (stereo not given), the TGI in the experiment on A549 NSCLC, in the experiment with ACHN renal, in the experiment on KM12 colon, in the experiment with SF-539 CNS, with SK-MEL-2 melanoma and with SN12C renal was more than 100 µM in each case. Besides, the TGI with SNB-75 CNS and in the experiment on UACC-62 melanoma was more than 100 µM throughout.

`CCN1CCC(O)(c2ccc(OC)cc2)C(C(=O)c2ccc(OC)cc2)C1` (stereo not given): the TGI was 37 µM in the experiment on A549 NSCLC; 30.1 µM in the experiment with ACHN renal; 42.1 µM with KM12 colon; 35.3 µM in the experiment with NCI-H23 lung; 32.4 µM in the experiment on SF-539 CNS; 38.1 µM with SK-MEL-2 melanoma. Moreover, the TGI with SN12C renal was 42.5 µM; with SNB-75 CNS it was 30.6 µM; in the experiment with UACC-62 melanoma, 32.2 µM.

On to `NC(=O)C12CC3CC(CC(F)(C3)C1)C2`, for which the TGI with A549 NSCLC, in the experiment on ACHN renal, in the experiment on KM12 colon, with NCI-H23 lung, in the experiment on SF-539 CNS and in the experiment on SK-MEL-2 melanoma was more than 100 µM each time. The TGI in the experiment on SNB-75 CNS and in the experiment with UACC-62 melanoma was more than 100 µM throughout.

On to `O=c1ccn([C@H]2CSC[C@@H](CO)C2)c(=O)[nH]1`, for which the TGI in the experiment on A549 NSCLC, in the experiment on ACHN renal, with KM12 colon, in the experiment on NCI-H23 lung, in the experiment with SF-539 CNS and in the experiment with SK-MEL-2 melanoma was more than 100 µM in each case. The TGI with SN12C renal, with SNB-75 CNS and with UACC-62 melanoma was more than 100 µM in each case.

Turning to `CCCc1nc(NC#N)nc(C(=O)Nc2ccccc2)c1CC`, the TGI in the experiment on A549 NSCLC, in the experiment with ACHN renal, in the experiment on KM12 colon, in the experiment with NCI-H23 lung, in the experiment on SF-539 CNS and in the experiment with SK-MEL-2 melanoma was more than 100 µM each time. Moreover, the TGI in the experiment on SN12C renal, in the experiment with SNB-75 CNS and with UACC-62 melanoma was more than 100 µM in each case.

For `COc1ccc(NC(=O)/C(Cc2cc(=O)oc3cc(O)ccc23)=N\NC(C)(C)C)c(OC)c1`, the TGI in the experiment on A549 NSCLC, in the experiment on ACHN renal, in the experiment with KM12 colon, with NCI-H23 lung, with SF-539 CNS and in the experiment with SK-MEL-2 melanoma was more than 100 µM throughout. For the same compound, the TGI in the experiment on SN12C renal and in the experiment on UACC-62 melanoma was more than 100 µM throughout.

On to `C1=CC(N(c2ccccc2)C2C=CCCC2)CCC1` (stereo not given), for which the TGI with A549 NSCLC, with ACHN renal, in the experiment with NCI-H23 lung, in the experiment on SF-539 CNS, with SN12C renal and in the experiment with UACC-62 melanoma was more than 100 µM throughout.

As to `CC(=O)c1sc(Nc2nnc(-c3ccc(-c4nnc(Nc5nc(C)c(C(C)=O)s5)o4)cc3)o2)nc1C`, the TGI was more than 10 µM in the experiment with A549 NSCLC; more than 100 µM with ACHN renal; more than 10 µM in the experiment with KM12 colon; more than 100 µM in the experiment with NCI-H23 lung; more than 100 µM in the experiment with SN12C renal; more than 100 µM in the experiment with UACC-62 melanoma.

On to `CCC[CH2][Sn]([Cl])([CH2]CCC)[CH2]CCC`, for which the GI50 with A549 NSCLC was 0.132 µM; with ACHN renal, 0.144 µM; with KM12 colon, 0.123 µM; with NCI-H23 lung, 0.0552 µM; with SK-MEL-2 melanoma, 0.112 µM; in the experiment with SN12C renal it was 0.119 µM. Further, the GI50 in the experiment on SNB-75 CNS is 0.111 µM; in the experiment with UACC-62 melanoma, 0.135 µM. The TGI with A549 NSCLC was determined as 0.32 µM; in the experiment on ACHN renal it was 0.276 µM; with KM12 colon it was 0.264 µM; in the experiment on NCI-H23 lung it was 0.211 µM; in the experiment on SK-MEL-2 melanoma, 0.24 µM; in the experiment on SN12C renal it was 0.254 µM. Besides, the TGI in the experiment with SNB-75 CNS was determined as 0.354 µM; with UACC-62 melanoma it was 0.373 µM.

On to `N#CC(C(=O)C(=O)C(C#N)c1ccc(Br)cc1)c1ccc(Br)cc1` (stereo not given), for which the TGI came to 46.5 µM in the experiment with A549 NSCLC; 25.1 µM with ACHN renal; 22.4 µM in the experiment with KM12 colon; 14.1 µM with NCI-H23 lung; 29.4 µM with SF-539 CNS; 27.5 µM with SK-MEL-2 melanoma. Also, the values for the TGI in the experiment with SN12C renal, with SNB-75 CNS and in the experiment with UACC-62 melanoma were 28 µM, 17.7 µM and 7.03 µM, respectively.

`OCC1OC(c2nc(C3=NCCCN3)cs2)C(O)C1O` (stereo not given): the TGI in the experiment on A549 NSCLC is more than 100 µM; in the experiment on ACHN renal, more than 100 µM; in the experiment on KM12 colon, more than 10 µM; in the experiment with NCI-H23 lung it was more than 100 µM; in the experiment with SF-539 CNS it was more than 100 µM; in the experiment on SK-MEL-2 melanoma, more than 100 µM. Also, the TGI in the experiment on SN12C renal and in the experiment on UACC-62 melanoma was more than 100 µM each time.

Consider `CCOc1ccc(NC(=O)CC#N)cc1`, for which the TGI in the experiment on A549 NSCLC, with ACHN renal, with KM12 colon, with NCI-H23 lung, with SK-MEL-2 melanoma and in the experiment with SN12C renal was more than 100 µM in each case. In addition, the TGI in the experiment with SNB-75 CNS and with UACC-62 melanoma was more than 100 µM throughout.

As for `O=C(CCc1n[nH]c(=S)o1)Nc1ccccc1C(F)(F)F`, the TGI in the experiment on ACHN renal, with KM12 colon, in the experiment with NCI-H23 lung, with SF-539 CNS, in the experiment with SN12C renal and in the experiment with SNB-75 CNS was more than 100 µM throughout. The same compound showed a TGI in the experiment with UACC-62 melanoma of more than 100 µM.

Turning to `O=C(Nc1nc(=S)c2c(ncn2CCOC(=O)c2ccccc2)[nH]1)c1ccccc1`, the TGI in the experiment with A549 NSCLC is more than 100 µM; in the experiment on ACHN renal, more than 100 µM; in the experiment on KM12 colon, more than 100 µM; with SF-539 CNS, 94.3 µM; in the experiment with SK-MEL-2 melanoma it was more than 100 µM; in the experiment on SN12C renal it was more than 100 µM. The TGI with SNB-75 CNS was 47.5 µM; with UACC-62 melanoma, more than 100 µM.

On to `Cc1[nH]c2ccccc2c1C(=O)/C=C/c1ccccc1O`, for which the TGI in the experiment with A549 NSCLC, in the experiment on ACHN renal, in the experiment on KM12 colon, with NCI-H23 lung, with SK-MEL-2 melanoma and in the experiment on SN12C renal was more than 100 µM in each case. The TGI in the experiment on SNB-75 CNS and in the experiment on UACC-62 melanoma was more than 100 µM in each case.
